Source: patent publication US20260308186A1, “STAT DEGRADERS AND USES THEREOF” (Recludix Pharma, Inc., priority 2023, published 2026)

Columns and labels:
[1] = biological target: T1, STAT3 (Homo sapiens, UniProt P40763); experiment: STAT3 Fluorescence Polarization (FP) Assay; type: binding; settings: recombinant STAT3 25 nM; probe 5-FAM-GpYLPQTV-NH2 2 nM; 45 min, room temperature; read-out: STAT3 FP IC50
T1 construct: Recombinant STAT3 protein (STAT3(G127-1722))
Description: STAT3 Fluorescence Polarization (FP) Assay
An FP assay was developed to determine IC50 values for test substances. Recombinant STAT3 protein (STAT3(G127-1722)) at 25 nM was combined with a fluorescently labeled, phosphotyrosine peptide probe (5-FAM-GpYLPQTV-NH2) at 2 nM in FP buffer (10 mM HEPES pH 7.4, 50 mM NaCl, 1 mM EDTA, 0.05% Tween 20.2 mM DTT). 50 μL of STAT3-probe mixture was added to serial diluted compounds in black, 96-well plates (Greiner BioOne 655076) to a final concentration of 1% DMSO. Reaction components were mixed, and FP was measured after 45-minute incubation at room temperature using a Tecan Spark multimode plate reader. FP signal (mP) was plotted against the log concentration of the test substances and IC50 values were calculated by nonlinear regression analysis using GraphPad Prism software. For STAT3 FP assay. A=≤100 nM; B=>100-1000 nM; C=>1-10 μM; and D=>10 μM.

[2] = biological target: T2, pSTAT6 (Homo sapiens, UniProt P42226); experiment: MSD-pSTAT-PBMC Assay, pSTAT6 (IL-4 stimulated PBMC); type: cell-based; settings: compound 3 hrs, then 1 ng/mL IL-4 for 10 min, pY641-STAT6, read-out: pSTAT6 IC50
T2 construct: pY641-STAT6 MSD read-out
T2 sequence (P42226 1-847): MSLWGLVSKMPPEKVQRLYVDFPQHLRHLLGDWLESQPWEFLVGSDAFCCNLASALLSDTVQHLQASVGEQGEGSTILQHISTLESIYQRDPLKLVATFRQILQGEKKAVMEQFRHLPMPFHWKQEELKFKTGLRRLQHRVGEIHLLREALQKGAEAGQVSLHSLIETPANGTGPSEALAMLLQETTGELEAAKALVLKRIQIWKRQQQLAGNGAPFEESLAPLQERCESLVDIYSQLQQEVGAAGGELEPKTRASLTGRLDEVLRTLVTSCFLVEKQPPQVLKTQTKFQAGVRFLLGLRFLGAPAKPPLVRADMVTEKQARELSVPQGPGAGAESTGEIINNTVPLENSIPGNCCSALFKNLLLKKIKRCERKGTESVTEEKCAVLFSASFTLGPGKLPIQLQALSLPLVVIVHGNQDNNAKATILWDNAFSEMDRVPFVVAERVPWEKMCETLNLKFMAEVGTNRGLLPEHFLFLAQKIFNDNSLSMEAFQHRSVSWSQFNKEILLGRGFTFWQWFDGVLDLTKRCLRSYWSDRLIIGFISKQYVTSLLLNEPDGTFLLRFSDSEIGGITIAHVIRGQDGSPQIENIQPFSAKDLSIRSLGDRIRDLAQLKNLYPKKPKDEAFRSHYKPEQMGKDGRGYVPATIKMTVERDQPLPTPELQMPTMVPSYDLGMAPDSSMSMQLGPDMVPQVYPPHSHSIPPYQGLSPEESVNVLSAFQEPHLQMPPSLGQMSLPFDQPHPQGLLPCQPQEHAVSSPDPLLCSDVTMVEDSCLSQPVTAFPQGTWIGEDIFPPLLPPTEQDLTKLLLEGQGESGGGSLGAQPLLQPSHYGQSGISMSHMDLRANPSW
Excerpt: Cryopreserved Peripheral Blood Mononuclear Cells (PBMC) are from AllCells. Recombinant Human IL-4 and IL-6 are from Peprotech. Mouse monoclonal anti-STAT3 antibody, rabbit monoclonal anti-pY705-STAT3 antibody, rabbit monoclonal Anti-pY641-STAT6 antibody, and lysis buffer are from Cell Signaling Technology (CST). Mouse monoclonal anti-STAT6 antibody is from BioLegend. Assay plates, blocker, and anti-rabbit secondary antibody are from Meso Scale Discovery (MSD).
Cryopreserved PBMCs were thawed out and allowed to recover overnight in IMDM+10% heat-inactivated FBS prior to plating 50,000 (STAT3) or 25,000 (STAT6) cells per well in 96-well U-bottom tissue culture plates. Cells were treated with compound for 3 hrs. then stimulated with 10 ng/mL IL-6 (STAT3) or 1 ng/mL IL-4 (STAT6) for 10 min. Cells were then spun down and washed with ice-cold PBS prior to lysing the cell pellet with 1× lysis buffer (CST) with 1×HALT protease and phosphatase inhibitor cocktail (Thermo). Lysates were transferred to and incubated overnight at 4° C. with shaking in QuickPlex 96-well high bind assay plates (MSD) pre-coated overnight with 30 μL per well of 0.6 μg/mL mouse monoclonal anti-STAT3 antibody (STAT3) or 2 μg/mL mouse monoclonal anti-STAT6 antibody (STAT6) in 1×PBS, and pre-blocked for 1 hour with 3% Blocker-A (MSD). Captured protein in the assay plates were then washed and probed with 25 μL per well of 0.25 μg/ml rabbit monoclonal anti-pY705-STAT3 antibody (STAT3) or 0.18 μg/ml rabbit monoclonal Anti-pY641-STAT6 antibody (STAT6) in 1% Blocker-A for 1 hour at room temperature with shaking, then washed and probed with 25 ul per well of 1 ug/ml Sulfo-TAG Labeled Goat Anti-Rabbit Antibody (MSD) in 1% Blocker-A for 1 hour at room temperature with shaking. Assay plates were then washed and 150 μL of 1× Read Buffer-T (MSD) was added to each well prior to reading on an SQ120 MSD Plate Reader. Assay signal from each sample was subtracted by the signal from unstimulated control wells and normalized to DMSO control wells. IC50 values were calculated using Graph Pad Prism Dose-Response Nonlinear Regression with variable slope. For both pSTAT3 and pSTAT6 A=≤100 nM; B=>100-1000 nM; C=>1000-3000 nM; and D=>3 μM.

[3] = biological target: T3, STAT6 (Homo sapiens, UniProt P42226); experiment: STAT6 Fluorescence Polarization (FP) Assay; type: binding; settings: recombinant STAT6(W123-T658) 250 nM; probe 5-FAM-Ap[…]-NH2 2 nM; 45 min, room temperature; read-out: STAT6 FP IC50
T3 construct: Recombinant STAT6 protein (STAT6(W123-T658))
T3 sequence (P42226 123-658): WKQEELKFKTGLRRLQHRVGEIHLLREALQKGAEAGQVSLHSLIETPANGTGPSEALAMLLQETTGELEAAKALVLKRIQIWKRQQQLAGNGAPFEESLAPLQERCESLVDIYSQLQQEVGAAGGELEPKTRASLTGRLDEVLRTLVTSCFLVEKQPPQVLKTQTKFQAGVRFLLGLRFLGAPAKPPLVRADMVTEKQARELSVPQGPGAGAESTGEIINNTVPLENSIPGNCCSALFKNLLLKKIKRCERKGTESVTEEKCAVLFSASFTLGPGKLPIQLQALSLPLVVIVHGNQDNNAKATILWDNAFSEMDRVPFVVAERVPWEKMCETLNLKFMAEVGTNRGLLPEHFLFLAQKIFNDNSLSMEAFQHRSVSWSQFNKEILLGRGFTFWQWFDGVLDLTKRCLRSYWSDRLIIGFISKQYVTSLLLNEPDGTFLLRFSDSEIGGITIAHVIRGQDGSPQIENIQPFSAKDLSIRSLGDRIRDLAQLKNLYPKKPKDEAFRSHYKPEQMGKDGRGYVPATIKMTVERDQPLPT
Description: STAT6 Fluorescence Polarization (FP) Assay
An FP assay was developed to determine IC50 values for test substances. Recombinant STAT6 protein (STAT6(W123-T658)) at 250 nM was combined with a fluorescently labeled, phosphotyrosine peptide probe (5-FAM-Ap[…]-NH2) at 2 nM in FP buffer (10 mM HEPES pH 7.4, 50 mM NaCl, 1 mM EDTA, 0.05% Tween 20, 2 mM DTT), 50 μL of STAT6-probe mixture was added to serial diluted compounds in black, 96-well plates (Greiner BioOne 655076) to a final concentration of 1% DMSO. Reaction components were mixed, and FP was measured after 45-minute incubation at room temperature using a Tecan Spark multimode plate reader. FP signal (mP) was plotted against the log concentration of the test substances and IC50 values were calculated by nonlinear regression analysis using GraphPad Prism software. For STAT6 FP assay. A=≤300 nM; B=>300-3000 nM; C=>3-30 μM; and D=>30 μM.

T1 sequence (P40763 127-722 limits assumed): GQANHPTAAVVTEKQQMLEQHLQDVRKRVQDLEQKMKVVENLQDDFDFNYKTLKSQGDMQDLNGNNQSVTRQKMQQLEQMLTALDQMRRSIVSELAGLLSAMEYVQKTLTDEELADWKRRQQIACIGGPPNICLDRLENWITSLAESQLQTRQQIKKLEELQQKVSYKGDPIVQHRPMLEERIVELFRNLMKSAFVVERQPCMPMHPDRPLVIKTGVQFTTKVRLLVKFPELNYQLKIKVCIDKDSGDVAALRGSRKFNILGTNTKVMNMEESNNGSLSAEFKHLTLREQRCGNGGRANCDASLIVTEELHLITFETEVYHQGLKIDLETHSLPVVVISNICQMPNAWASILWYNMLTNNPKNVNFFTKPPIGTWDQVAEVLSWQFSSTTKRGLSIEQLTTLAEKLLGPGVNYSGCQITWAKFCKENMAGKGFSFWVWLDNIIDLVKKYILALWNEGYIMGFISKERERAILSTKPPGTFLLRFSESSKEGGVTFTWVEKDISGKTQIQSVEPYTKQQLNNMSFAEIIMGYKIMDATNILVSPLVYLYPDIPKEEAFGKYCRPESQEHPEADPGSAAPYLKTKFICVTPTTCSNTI

SMILES: CC(=O)N[C@H](C(=O)N1C[C@H](O)C[C@H]1C(=O)NCc1ccc(-c2scnc2C)cc1OCCCCN(C)C(=O)[C@@H]1CC[C@@H]2CCN(C(=O)c3noc4ccc(C)cc34)C[C@H](NC(=O)c3ccc4ccc(C(F)(F)P(=O)(O)O)cc4c3)C(=O)N21)C(C)(C)C [Compound 31, ((7-(((5S,8S,10aR)-8-((4-(2-(((2S,4R)-1-((S)-2-acetamido-3,3-dimethylbutanoyl)-4-hydroxypyrrolidine-2-carboxamido)methyl)-5-(4-methylthiazol-5-yl)phenoxy)butyl)(methyl)carbamoyl)-3-(5-methylbenzo[d]isoxazole-3-carbonyl)-6-oxodecahydropyrrolo[1,2-a][1,5]diazocin-5-yl)carbamoyl)naphthalen-2-yl)difluoromethyl)phosphonic acid]
- IC50 [1]: 1 to 10 µM
- IC50 [2]: > 3 µM

SMILES: Cc1ccc2onc(C(=O)N3CC[C@H]4CC[C@@H](C(=O)N(C)CCCCCCC#Cc5cccc6c5CN(C5CCC(=O)NC5=O)C6=O)N4C(=O)[C@@H](NC(=O)c4ccc5ccc(C(F)P(=O)(O)O)cc5c4)C3)c2c1 (stereo partly drawn) [Compound 40, ((7-(((5S,8S,10aR)-8-((8-(2-(2,6-dioxopiperidin-3-yl)-1-oxoisoindolin-4-yl)oct-7-yn-1-yl)(methyl)carbamoyl)-3-(5-methylbenzo[d]isoxazole-3-carbonyl)-6-oxodecahydropyrrolo[1,2-a][1,5]diazocin-5-yl)carbamoyl)naphthalen-2-yl)fluoromethyl)phosphonic acid]
- IC50 [3]: < 300 nM
- IC50 [1]: > 10 µM
- IC50 [2]: > 3 µM

SMILES: Cc1ccc2onc(C(=O)N3CC[C@H]4CC[C@@H](C(=O)N5CCN(c6cccc7c6[nH]c(=O)n7C6CCC(=O)NC6=O)CC5)N4C(=O)[C@@H](NC(=O)c4ccc5ccc(C(F)(F)P(=O)(O)O)cc5c4)C3)c2c1 (stereo partly drawn) [Compound 36, ((7-(((5S,8S,10aR)-8-(4-(1-(2,6-dioxopiperidin-3-yl)-2-oxo-2,3-dihydro-1H-benzo[d]imidazol-4-yl)piperazine-1-carbonyl)-3-(5-methylbenzo[d]isoxazole-3-carbonyl)-6-oxodecahydropyrrolo[1,2-a][1,5]diazocin-5-yl)carbamoyl)naphthalen-2-yl)difluoromethyl)phosphonic acid]
- IC50 [3]: < 300 nM
- IC50 [1]: 1 to 10 µM
- IC50 [2]: > 3 µM

SMILES: Cc1ccc2onc(C(=O)N3CC[C@H]4CC[C@@H](C(=O)N(C)CCCCCCC#Cc5cccc6c5CN(C5CCC(=O)NC5=O)C6=O)N4C(=O)[C@@H](NC(=O)c4ccc5ccc(C(F)(F)P(=O)(O)O)cc5c4)C3)c2c1 (stereo partly drawn) [Compound 22, ((7-(((5S,8S,10aR)-8-((8-(2-(2,6-dioxopiperidin-3-yl)-1-oxoisoindolin-4-yl)oct-7-yn-1-yl)(methyl)carbamoyl)-3-(5-methylbenzo[d]isoxazole-3-carbonyl)-6-oxodecahydropyrrolo[1,2-a][1,5]diazocin-5-yl)carbamoyl)naphthalen-2-yl)difluoromethyl)phosphonic acid]
- IC50 [3]: < 300 nM
- IC50 [1]: > 10 µM
- IC50 [2]: 0.1 to 1 µM

SMILES: Cc1ccc2onc(C(=O)N3CC[C@H]4CC[C@@H](C(=O)N(C)CCCCCCC#Cc5cccc6c5CN(C5CCC(=O)NC5=O)C6=O)N4C(=O)[C@@H](NC(=O)c4ccc5ccc(C(F)(F)P(=O)(OCCSC(=O)C(C)(C)C)OCCSC(=O)C(C)(C)C)cc5c4)C3)c2c1 (stereo partly drawn) [Compound 18, S,S′-(((((7-(((5S,8S,10aR)-8-((8-(2-(2,6-dioxopiperidin-3-yl)-1-oxoisoindolin-4-yl)oct-7-yn-1-yl)(methyl)carbamoyl)-3-(5-methylbenzo[d]isoxazole-3-carbonyl)-6-oxodecahydropyrrolo[1,2-a][1,5]diazocin-5-yl)carbamoyl)naphthalen-2-yl)difluoromethyl)phosphoryl)bis(oxy))bis(ethane-2,1-diyl)) bis(2,2-dimethylpropanethioate)]
- IC50 [2]: < 0.1 µM

SMILES: Cc1ccc2onc(C(=O)N3CC[C@H]4CC[C@@H](C(=O)N(C)CCCCCCC#Cc5cccc6c5CN(C5CCC(=O)NC5=O)C6=O)N4C(=O)[C@@H](NC(=O)c4ccc5ccc(C(F)(F)P(=O)(O)OCCSC(=O)CC(C)C)cc5c4)C3)c2c1 (stereo partly drawn) [Compound 23, S-(2-((((7-(((5S,8S,10aR)-8-((8-(2-(2,6-dioxopiperidin-3-yl)-1-oxoisoindolin-4-yl)oct-7-yn-1-yl)(methyl)carbamoyl)-3-(5-methylbenzo[d]isoxazole-3-carbonyl)-6-oxodecahydropyrrolo[1,2-a][1,5]diazocin-5-yl)carbamoyl)naphthalen-2-yl)difluoromethyl)(hydroxy)phosphoryl)oxy)ethyl) 3-methylbutanethioate]
- IC50 [2]: > 3 µM
